Experimental findings from ChEMBL document CHEMBL1201862, “PubChem BioAssay data set” (2004) are described below.

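A five-concentration, 48-hour dose response in 96-well plates underlies each endpoint, interpolated linearly between surrounding concentrations. Here, GI50 denotes the concentration required for 50% inhibition of growth.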 The source made the active and inactive calls. No stated cut-off is given here; in the data, active = GI50 up to about 1.1 µM and inactive = higher.

Common to all, as to assay: NCI tumour cell line growth inhibition, 48 h
For assay [1], the system named is MOLT-4.
Assay [2] concerns DMS-273.
In assay [3] the test system is UACC-62.
The test system of assay [4] is NCI-H522.
In assay [5] the test system is EKVX.
Assay [6] deals with HCT-15.
For assay [7], the system named is RPMI-8226.
Assay [8] relates to OVCAR-3.
The test system of assay [9] is SF-539.
For assay [10], the system named is LOX IMVI.
Assay [11] concerns U-251.
Assay [12] deals with CAKI-1.
Assay [13] relates to CCRF-CEM.
Assay [14] relates to OVCAR-5.
Assay [15] concerns KM12.
For assay [16], the system named is Hs-578T.
For assay [17], the system named is MDA-N.
Assay [18] relates to NCI-H226.
In assay [19] the test system is MDA-MB-231.
For assay [20], the system named is DU-145.

On to `Cc1nc(-n2nc(-c3ccccc3)cc2-c2ccccc2)sc1C(=O)/C=C/c1cccc([N+](=O)[O-])c1`, for which the GI50 in [1] is 6.04 µM (inactive); in assay [2] it was 26.5 µM (inactive); in assay [3], 13.8 µM (inactive); in assay [4], 13.8 µM (inactive); in [5] it was 34.7 µM (inactive); in [6] it was 16.8 µM. In addition, the GI50 in [7] is 4.76 µM (inactive); in assay [8], 3.03 µM (inactive); in assay [9], 10.9 µM (inactive); in assay [10], 11.2 µM (inactive); in [11], 15.2 µM (inactive); in assay [12], 16.7 µM (inactive). Further, the GI50 in [13] is 8.32 µM (inactive); in [14], 23.7 µM (inactive); in assay [15], 2.62 µM (inactive).
Take `O=C1c2cccc3cc([N+](=O)[O-])cc(c23)C(=O)N1CCCN1CCN(CCCNc2ccc3ncn4c5ccccc5c(=O)c2c34)CC1`: the GI50 in assay [1], in assay [16], in assay [3], in assay [17], in assay [18] and in assay [4] was < 0.005 µM (active) each time. Besides, the GI50 was < 0.005 µM (active) in assay [5]; less than 0.005 µM in assay [6]; < 0.005 µM (active) in assay [7]; 0.0358 µM (active) in [8]; < 0.005 µM (active) in [9]; < 0.005 µM (active) in [19]. Besides, the GI50 in [10] is < 0.005 µM (active); in [11], < 0.005 µM (active); in assay [12] it was < 0.005 µM (active); in assay [13], < 0.005 µM (active); in assay [20], < 0.005 µM (active); in [14] it was 0.00867 µM (active). Further, in assay [15], the GI50 was < 0.005 µM (active).
As to `O=C(O)C1=C(C(=O)O)Oc2ccccc2O1`, the GI50 in assay [1], in assay [2], in [3], in assay [18], in assay [4] and in [5] was > 100 µM (inactive) throughout. In addition, the GI50 in assay [6] was more than 100 µM; in assay [8], > 100 µM (inactive); in [9] it was > 100 µM (inactive); in [10] it was > 100 µM (inactive); in assay [11], > 100 µM (inactive); in assay [12] it was > 100 µM (inactive). Also, the GI50 in [13], in assay [14] and in assay [15] was > 100 µM (inactive) in each case.
In the case of `O=C1C=C(c2ccccc2)OC1C1Sc2ccccc2NC1=O` (stereo not given), the GI50 in assay [1] is 10.6 µM (inactive); in assay [16], 6.11 µM (inactive); in assay [3], 11.9 µM (inactive); in [17], 4.48 µM (inactive); in assay [18] it was 14.5 µM (inactive); in [4], 6.85 µM (inactive). Further, the GI50 in assay [5] was 14 µM (inactive); in assay [6] it was 12.7 µM; in assay [7], 3.66 µM (inactive); in assay [8], 3.97 µM (inactive); in assay [9] it was 5.38 µM (inactive); in assay [19] it was 10.9 µM (inactive). The GI50 in assay [10] was 13.6 µM (inactive); in [11], 4.01 µM (inactive); in assay [12] it was 11.6 µM (inactive); in assay [13], 6.43 µM (inactive); in assay [20] it was 12.7 µM (inactive); in [14] it was 13.8 µM (inactive). Moreover, the GI50 in [15] was 7.76 µM (inactive).
Take `CCOC(=O)C1COc2cc(-c3cc(=O)c4ccccc4o3)ccc2O1` (stereo not given): the GI50 in assay [1] is > 100 µM (inactive); in assay [2], > 100 µM (inactive); in assay [3] it was 36.8 µM (inactive); in assay [4], 19.2 µM (inactive); in assay [5] it was 95.1 µM (inactive); in [8] it was > 100 µM (inactive). Besides, the GI50 in [9] was 30.5 µM (inactive); in [10] it was 52.7 µM (inactive); in assay [11], > 100 µM (inactive); in assay [12], > 100 µM (inactive); in assay [13] it was > 100 µM (inactive); in assay [14], 78.9 µM (inactive). Besides, the GI50 in [15] is > 100 µM (inactive).
For `CC(C)(Oc1ccc(C(=O)c2ccc(Cl)cc2)cc1Cl)C(=O)Nc1c(Cl)cccc1Cl`, the GI50 is 67.9 µM (inactive) in assay [1]; > 100 µM (inactive) in [2]; > 100 µM (inactive) in assay [3]; 12.3 µM (inactive) in assay [4]; > 100 µM (inactive) in assay [5]; more than 100 µM in [6]. For the same compound, the GI50 in assay [7], in assay [8], in assay [9], in assay [10], in assay [11] and in assay [12] was > 100 µM (inactive) throughout. The GI50 in assay [13], in assay [14] and in [15] was > 100 µM (inactive) each time.
For `CC(=O)c1ccc(N2C(=O)C3c4[nH]c5ccccc5c4C4CCC(C(C)(C)C)CC4C3C2=O)cc1` (stereo not given), the GI50 was 30.1 µM (inactive) in [1]; 17.7 µM (inactive) in assay [2]; 21.1 µM (inactive) in assay [3]; 18.7 µM (inactive) in assay [18]; 24.4 µM (inactive) in assay [4]; 30.5 µM (inactive) in [5]. Besides, the GI50 was 29.3 µM in [6]; 23.3 µM (inactive) in [7]; 20.3 µM (inactive) in assay [9]; 19.5 µM (inactive) in assay [11]; 36.3 µM (inactive) in assay [13].
For `O=C(/C=C/c1ccco1)N1CCN(Cc2ccccc2)CC1`, the GI50 is > 100 µM (inactive) in assay [1]; > 100 µM (inactive) in assay [2]; > 100 µM (inactive) in assay [3]; > 100 µM (inactive) in assay [4]; > 100 µM (inactive) in assay [5]; more than 100 µM in assay [6]. In addition, the GI50 in assay [7], in assay [8], in [9], in assay [10], in assay [11] and in assay [12] was > 100 µM (inactive) throughout. Also, the GI50 in assay [13], in assay [14] and in [15] was > 100 µM (inactive) throughout.
On to `Cn1c2c(c3ccccc31)C1CCCCCCC1C1C(=O)OC(=O)C21` (stereo not given), for which the GI50 in assay [1] is 24.8 µM (inactive); in assay [2], 20 µM (inactive); in assay [3], 59.6 µM (inactive); in assay [18], 63 µM (inactive); in assay [5], 45.5 µM (inactive); in assay [6] it was 30.2 µM. Besides, the GI50 is 23.1 µM (inactive) in [7]; 19.5 µM (inactive) in assay [8]; 39.8 µM (inactive) in assay [9]; 22.8 µM (inactive) in assay [10]; 37.9 µM (inactive) in assay [11]; 24.3 µM (inactive) in assay [13]. The figures for the GI50 in [14] and in assay [15] were > 100 µM (inactive) and 38.9 µM (inactive), respectively.
As to `CC1C(=O)O[C@H]2C1CC[C@@]1(C)[C@H](O)CC[C@@]13C[C@]2(O)OO3` (stereo not given in full), the GI50 in [1] is > 100 µM (inactive); in assay [2], > 100 µM (inactive); in assay [3] it was > 100 µM (inactive); in assay [18], > 100 µM (inactive); in [6] it was more than 100 µM; in [7], > 100 µM (inactive). Moreover, the GI50 in [8], in [10], in assay [11], in assay [12], in assay [13] and in [14] was > 100 µM (inactive) throughout.
Turning to `CC(=O)OC(C)(C)[C@@H]1CC[C@]2(C)/C=C/[C@H](C)C[C@@H](O)C3=C(C)C[C@@H](O3)C12` (stereo not given in full), the GI50 was > 100 µM (inactive) in assay [1]; > 100 µM (inactive) in [2]; > 100 µM (inactive) in assay [3]; 49.1 µM (inactive) in assay [18]; > 100 µM (inactive) in assay [5]; more than 100 µM in assay [6]. In addition, the GI50 in [7], in [8], in assay [9], in assay [10], in [11] and in [12] was > 100 µM (inactive) in each case. For the same compound, the GI50 in assay [13], in assay [14] and in assay [15] was > 100 µM (inactive) in each case.
Consider `CC1C[C@@]2(c3ccccc3)C(=O)CCC[C@H]2N1` (stereo not given in full), for which the GI50 in assay [1], in assay [2], in assay [3], in assay [18], in assay [4] and in assay [5] was > 100 µM (inactive) throughout. The GI50 in assay [8], in assay [9], in assay [11], in [12], in [13] and in assay [14] was > 100 µM (inactive) in each case. In addition, in assay [15], the GI50 is > 100 µM (inactive).
For `O=C(O)/C=C(/CC(=O)O)C(=O)O`, the GI50 is 19.1 µM (inactive) in assay [1]; 19.9 µM (inactive) in [16]; 18.2 µM (inactive) in [3]; 22.1 µM (inactive) in assay [17]; 21.6 µM (inactive) in [18]; 17.9 µM (inactive) in [4]. The GI50 in assay [5] was 19.3 µM (inactive); in [6], 22.7 µM; in assay [7], 14.9 µM (inactive); in assay [8], 15.7 µM (inactive); in assay [9] it was 12.3 µM (inactive); in [19], 21.3 µM (inactive). Moreover, the GI50 is 22.7 µM (inactive) in [10]; 19.4 µM (inactive) in assay [11]; 20.6 µM (inactive) in assay [12]; 13.6 µM (inactive) in assay [13]; 19.9 µM (inactive) in assay [20]; 38.4 µM (inactive) in assay [14]. Also, in assay [15], the GI50 is 23.8 µM (inactive).
